# Source: PubChem BioAssay (NCI)
#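 How tested: cells in 96-well plates exposed to compound for 48 hours at five concentrations. GI50 = concentration required for 50% inhibition of growth. TGI denotes the concentration required for complete inhibition of growth.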
# Columns and labels:
# Assay in all cases: DTP human tumour cell line panel, 48 h
# 786-0 renal = system: 786-0 renal
# CAKI-1 renal = system: CAKI-1 renal
# COLO 205 colon = system: COLO 205 colon
# EKVX NSCLC = system: EKVX NSCLC
# NCI-H226 lung = system: NCI-H226 lung
# NCI-H460 lung = system: NCI-H460 lung
# OVCAR-3 ovarian = system: OVCAR-3 ovarian
# SNB-75 CNS = system: SNB-75 CNS
# SW-620 colon = system: SW-620 colon
# T-47D breast = system: T-47D breast
SMILES,GI50 (786-0 renal) [µM],TGI (786-0 renal) [µM],GI50 (CAKI-1 renal) [µM],TGI (CAKI-1 renal) [µM],GI50 (COLO 205 colon) [µM],TGI (COLO 205 colon) [µM],GI50 (EKVX NSCLC) [µM],TGI (EKVX NSCLC) [µM],GI50 (NCI-H226 lung) [µM],TGI (NCI-H226 lung) [µM],GI50 (NCI-H460 lung) [µM],TGI (NCI-H460 lung) [µM],GI50 (OVCAR-3 ovarian) [µM],TGI (OVCAR-3 ovarian) [µM],GI50 (SNB-75 CNS) [µM],TGI (SNB-75 CNS) [µM],GI50 (SW-620 colon) [µM],TGI (SW-620 colon) [µM],GI50 (T-47D breast) [µM],TGI (T-47D breast) [µM]
O=C1c2cccnc2C(=O)c2nc3cc(N4CCN(C5CC5)CC4)ccc3nc21,1.38,4,0.439,3.05,0.558,2.34,1.68,4.02,1.46,4.08,0.137,0.352,1.24,3.67,0.147,1.37,0.409,1.94,2.16,6.34
O=C(/C=C/c1ccccc1)c1cc(Br)ccc1O,,28.8,,31.1,,33.3,,27.6,,31.7,,33.7,,43,,28.9,,46.8,,25.5
Nc1nc2c(c3ncncc13)C(c1cccc(C(F)(F)F)c1)Cc1ncncc1-2 (configuration not stated),4.43,27.4,4.29,> 100,3.26,13.8,6.18,> 100,9.61,50.1,3.96,> 100,3.03,11.4,3.11,43.7,4.51,> 100,4.15,82.9
COc1cc(C2CC(c3ccc4c(c3)OCO4)=NN2C=O)cc(OC)c1OC (configuration not stated),5.26,> 100,1.25,> 100,1.3,5.91,3.74,> 100,8.06,> 100,1.37,> 100,0.965,3.25,1.13,5.43,1.21,> 100,3.34,> 100
COc1cccc2c1c(C(=O)C(=O)Nc1cc(C)no1)cn2Cc1ccc(F)cc1,19.2,> 100,5.92,> 45.4,13.8,53,32.6,> 100,36.2,> 100,5.15,46.9,2.62,> 27.3,3.42,> 73.5,3.68,> 100,5.17,> 100
COc1ccc2c(c1)cn1c3ccc(O)cc3nc(N)c21,0.947,6.86,0.246,4.39,0.885,4.68,1.51,18.5,0.597,23.2,0.131,14.7,0.0757,2.39,0.112,2.81,0.0388,5.82,2.34,10.4
CCOC(=O)c1cc(NS(=O)(=O)c2ccccc2)cc(C(=O)OCC)c1,> 100,> 100,> 100,> 100,> 100,> 100,> 100,> 100,> 100,> 100,> 100,> 100,> 100,> 100,> 100,> 100,> 100,> 100,> 100,> 100
COc1ccc(/C=C(/C#N)C(N)=O)cc1OC,,> 100,,> 100,,> 100,,> 100,,> 100,,> 100,,> 100,,> 100,,> 100,,> 100
COc1cc2c(c(OC)c1)C1c3ccccc3NC(=O)N1CC2 (configuration not stated),4.63,> 100,4.62,> 100,2.82,8.25,4.79,> 100,7.24,> 100,3.7,> 100,3.27,> 100,2.69,> 100,4.68,> 100,5.59,> 100
COc1cccc(-n2ncc3c(N/N=C/c4ccc(C(=O)NCCN(C)C)cc4)ncnc32)c1,3.58,8.14,1.27,5.48,0.605,3.2,4.31,8.57,9.36,> 22.2,3.23,7.24,3.31,6.71,1.05,5.13,4.73,9.06,> 22.6,> 25
CN(C)CCCNC(CC#N)CCC#N (configuration not stated),,> 10,,> 10,,> 10,,> 10,,> 10,,> 10,,> 10,,> 10,,> 10,,> 10
O=c1cc(-c2ccccc2)[nH]c2ccccc12,2.81,> 100,0.825,> 100,0.45,,8.95,> 100,7.4,> 100,0.398,> 50.9,0.342,,0.542,> 100,0.379,> 100,0.468,> 100
COC(=O)[C@@]1(C)CC[C@]2(C)CC[C@]3(C)C4=CC=C5C(=CC(=O)C(O)=C5C)[C@]4(C)[C@@H](O)C[C@@]3(C)[C@@H]2C1,1.79,5.23,3.94,13.9,7.36,22.2,12.9,25.2,13.9,24.9,13.4,25.5,8.63,18.5,11.6,26,9.27,20.2,3.04,15.9
COc1ccc(-c2nn3c(-c4cc(F)c(Cl)cc4Cl)nnc3s2)cc1,33.4,> 100,37.9,> 100,16.5,36.8,34.1,> 100,47.9,> 100,22.4,86.5,20.4,66.7,17.2,51.5,24.6,> 100,27.5,> 100
CN1CCC(n2cnc(-c3ccc(F)cc3)c2-c2ccnc(NCCO)n2)CC1,> 23.9,> 25,> 17.9,> 25,8.86,> 25,> 23.2,> 25,> 25,> 25,9.54,> 25,> 23.4,> 25,12.3,> 25,15.8,> 25,> 25,> 25
O=C1/C(=C\c2c[nH]c3ccccc23)c2ccccc2N1c1c(Cl)cccc1Cl,1.74,3.21,1.43,4.53,1.8,3.27,1.63,4.91,1.7,3.65,1.66,3.37,1.83,3.78,1.68,5.61,1.9,3.56,2.01,5.62
COc1ccc(/C(C#N)=C/c2ccccc2OC)cc1,15.2,> 100,6.49,> 100,5.96,32.4,41.1,> 100,17.7,> 100,5.89,> 100,7.22,> 100,4.07,32.8,3.78,> 100,10,> 100
CN(C)CCNc1c2c(c(NCCN(C)C)c3[nH]ccc13)C(=O)c1ccccc1C2=O,0.899,,2.56,6.72,4.32,> 100,0.903,2.65,5.03,15.8,0.462,2.87,0.639,6.59,2.75,30.6,0.385,2.97,2.87,> 21.2
O=C(NCCCCCCNC(=O)n1cc(F)c(=O)[nH]c1=O)NCCCOCCOCCOCCOCCOCCOCCOCCOCCOCCOCCOCCOCCOCCOCCOCCOCCOCCOCCOCCOCCOCCCNC(=O)C(O)C(O)C(O)C(O)CO (configuration not stated),,> 100,,> 100,,> 100,,> 100,,> 100,,> 100,,> 100,,> 100,,> 100,,> 100
O=C(NCCO)Nc1ccc(-c2nc(N3CCOCC3)c3cccn3n2)cc1,0.218,6.14,1.16,> 100,0.117,9.08,0.183,8.47,0.13,6.33,0.19,> 100,0.17,9.82,0.0445,1.08,1.65,> 100,< 0.0212,0.125
